In this assay the test system is Phosphorylation of STAT6 in human PBMC (CD19+ B cells). Kind of assay: Phosphorylated STAT6 (pSTAT6) flow cytometry assay in human PBMC, IL-4 stimulated. Format: cell-based. As to conditions: compound 1 hour, 1 ng/ml IL-4 for 15 minutes, read-out: STAT6 IL4 pSTAT6 assay in PBMC: Average IC50. The protocol:
Example 2. Phosphorylated STAT6 (pSTAT6) Flow Cytometry Assay in Human PBMC
Phosphorylation of STAT6 in human PBMC was quantitatively measured using flow cytometry technology. Human PBMC were seeded in 96-well plates with a density of 0.3 to 0.5 million cells per well in 100 μl fresh media. Compounds were then added to the assay plates with a final top concentration of up to 30 μM in a 1:3 dilution series with total of 9 doses. The assay plates were incubated for 1 hour at 37° C. under 5% CO2. The cells were then stimulated with 1 ng/ml of IL-4 (R&D Systems, Cat #6507-IL) for 15 minutes, followed by fixation for 30 minutes at 4° C. Cells were spun down at 350 g for 5 minutes. The supernatant was removed and cells were washed once with FACS buffer. Cells were permeabilized with 90% MeOH/H2O for 30 minutes at 4° C., followed by one wash with FACS buffer. Non-specific binding were blocked with human Fc for 1 hour at 4 C, followed by one wash with FACS buffer. AF488 conjugated pSTAT6 antibody (BD Biosciences, Cat #612600, 1:100 dilution) and PE conjugated CD19 antibody (BD Biosciences, Cat #341103, 1:50 dilution) diluted in 100 μl FACS buffer was added to each well with overnight incubation at 4° C. Cells were then washed once with FACS buffer and resuspended in 200 μl of FACS buffer for flow cytometry to quantify pSTAT6 in CD19+ B cells. The data was analyzed by GraphPad Prism and the dose dependent pSTAT6 inhibition was fit using the four-parameter inhibitor vs. response nonlinear regression.
(Flow cytometry measures light scatter and fluorescence of single cells or particles in a stream.)
In the case of `C[C@@H]1CCCCN1C(=O)c1cc2ccc(C3=CCCN(C(=O)CCn4ccnn4)C3)cc2[nH]1` (single isomer, unassigned) [Example I-130], the IC50 (as a rule, the concentration that gives 50% inhibition) was more than 100 µM.
Then `CN(C)C(=O)c1cc2cc([C@H]3CC[C@H](CO)N(C(=O)CCn4ccnn4)C3)ccc2o1` (single isomer, unassigned) [Example I-157], with more than 100 µM.
Then `CN(C)C(=O)c1cc2cc(C3=CCCN(C(=O)Cc4cncnc4)C3)ccc2o1` [Example I-293], with more than 100 µM; and `CN(C)C(=O)c1cc2ccc(C3=CCCN(C(=O)C(CO)c4ccccc4)C3)cc2[nH]1` (stereo not shown) [Example I-159], with more than 100 µM; and `CN(C)C(=O)c1cc2ccc(C3=CCCN(S(=O)(=O)Cc4cccnn4)C3)cc2[nH]1` [Example I-16], with more than 100 µM.
Then `CN(C)C(=O)c1cc2cc(C3=CCCN(C(=O)CCc4nc5ccccc5[nH]4)C3)ccc2o1` [Example I-267], with more than 100 µM; and `CN(C)C(=O)c1cc2cc(C3=CCCN(C(=O)Cn4cncn4)C3)ccc2o1` [Example I-315], with more than 100 µM; and `COC(=O)C1CCC(c2ccc3oc(C(=O)N(C)C)cc3c2)CN1C(=O)CCn1ccnn1` (mixture of isomers) [Example I-2], with more than 100 µM.
Consider `CN(C)C(=O)c1cc2cc(C3CCC(CO)N(C(=O)CCn4ccnn4)C3)ccc2o1` (stereo not shown) [Example I-155], for which the IC50 was more than 100 µM.
In the case of `CN(C)C(=O)c1cc2ccc(C3=CCCN(C(=O)C4CN(Cc5ccccc5)CCO4)C3)cc2[nH]1` (stereo not shown) [Example I-100], the concentration for half-maximal inhibition (IC50) is 10 to 100 µM.
Then `COC(=O)[C@H]1CC[C@H](c2ccc3oc(C(=O)N(C)C)cc3c2)CN1C(=O)CCn1ccnn1` (single isomer, unassigned) [Example I-152], with more than 100 µM.
In the case of `CN(C)C(=O)c1cc2cc(C3=CCCN(C(=O)Cc4c[nH]c5ncccc45)C3)ccc2o1` [Example I-309], the 50% inhibitory concentration (IC50) is more than 100 µM.
`CN(C)C(=O)c1cc2cc(C3=CCCN(C(=O)[C@@H](N)Cn4ccnn4)C3)ccc2o1` (single isomer, unassigned) [Example I-173]: the IC50 was more than 100 µM.
For the compound `CN(C)C(=O)c1cc2cc(C3=CCCN(C(=O)Cc4ccc5c(c4)OCCO5)C3)ccc2o1` [Example I-306], the 50% inhibitory concentration (IC50) was more than 100 µM.
Then `CN(C)C(=O)c1cc2cc(C3=CCCN(C(=O)Cc4ccc5ncnn5c4)C3)ccc2o1` [Example I-286], with more than 100 µM.
The value for `CN(C)C(=O)c1cc2ccc(C3=CCCN(C(=O)c4cccnc4-c4cc(F)cc(F)c4)C3)cc2[nH]1` [Example I-94] was 10 to 100 µM; that for `Cc1cccc(C)c1N1CC(C(=O)N2CCC=C(c3ccc4cc(C(=O)N(C)C)[nH]c4c3)C2)CC1=O` (stereo not shown) [Example I-97] was 10 to 100 µM; that for `CN(C)C(=O)c1cc2ccc(C3=CCCN(C(=O)C4CC(=O)N4)C3)cc2[nH]1` (stereo not shown) [Example I-30] was 10 to 100 µM.
Turning to `CC(=O)N1CCC(c2cccc3c2CC(C(=O)N2CCC=C(c4ccc5oc(C(=O)N(C)C)cc5c4)C2)N(C=O)C3)CC1` (stereo not shown) [Example I-180], the IC50 was more than 100 µM.
As for `CN(C)C(=O)c1cc2ccc(C3=CCCN(C(=O)CCn4ccnn4)C3)cc2s1` [Example I-269], the IC50 fell in the range of 10 to 100 µM.
Then `CN(C)C(=O)c1cc2ccc(C3=CCCN(C(=O)C4CCN(S(C)(=O)=O)CC4)C3)cc2[nH]1` [Example I-140], with more than 100 µM.
The value for `CN(C)C(=O)c1cn2ccc(C3=CCCN(C(=O)CCn4ccnn4)C3)cc2n1` [Example I-289] was more than 100 µM; that for `CN(C)C(=O)c1nc2ccc(C3=CCCN(C(=O)C4Cc5ccccc5CN4C=O)C3)cc2[nH]1` (stereo not shown) [Example I-198] was more than 100 µM; that for `CN(C)C(=O)c1cc2ccc(C3=CCCN(C(=O)c4ccc(O)c(F)c4)C3)cc2[nH]1` [Example I-48] was 10 to 100 µM.
For the compound `CN(C)C(=O)c1cc2ccc(C3=CCCN(C(=O)c4c[nH]nc4I)C3)cc2[nH]1` [Example I-34], the IC50 lay in the range of 10 to 100 µM.
Consider `CC(=O)N1Cc2ccccc2CC1C(=O)N1CCC=C(c2ccc3oc(C(=O)N(C)C)cc3c2)C1` (stereo not shown) [Example I-182], for which the IC50 was more than 100 µM.
Regarding `COC(=O)C1CCC(c2ccc3oc(C(=O)N(C)C)cc3c2)CN1C(=O)CCn1ccnn1` (stereo not shown) [Example I-149], the IC50 is more than 100 µM.
Then `CN(C)C(=O)c1cc2cc(C3=CCCN(C(=O)Cn4cccn4)C3)ccc2o1` [Example I-261], with more than 100 µM.
Then `CN(C)C(=O)c1cc2ccc(C3=CCCN(C(=O)c4ccccc4-c4ccccc4C(=O)O)C3)cc2[nH]1` [Example I-105], with 10 to 100 µM; and `O=C(CCn1ccnn1)N1CCC=C(c2ccc3cc(C(=O)N4CCC4)[nH]c3c2)C1` [Example I-125], with more than 100 µM.
Then `CN(C)C(=O)c1cc2ccc(C3=CCCN(C(=O)CCc4ccn(C)n4)C3)cc2[nH]1` [Example I-10], with more than 100 µM.
Turning to `Cc1ccc(C(=O)N2CCC=C(c3ccc4cc(C(=O)N(C)C)[nH]c4c3)C2)c(=O)n1-c1ccc(F)cc1` [Example I-111], the IC50 was more than 100 µM.
In the case of `CN(C)C(=O)c1cc2ccc(C3=CCCN(C(=O)c4c(F)cccc4C(=O)O)C3)cc2[nH]1` [Example I-61], the IC50 is more than 100 µM.
Then `Cc1cc(Cl)c(S(C)(=O)=O)cc1C(=O)N1CCC=C(c2ccc3cc(C(=O)N(C)C)[nH]c3c2)C1` [Example I-74], with 10 to 100 µM.
For the compound `CN(C)C(=O)c1cc2cc(C3CCCN(C(=O)CCn4ccnn4)C3)ccc2o1` (stereo not shown) [Example I-305], the IC50 is more than 100 µM.
Then `CN(C)C(=O)c1cc2ccc(C3=CCCN(C(=O)CN4C(=O)COc5ccccc54)C3)cc2[nH]1` [Example I-79], with 10 to 100 µM.
Then `NC(=O)c1cc2cc(C3=CCCN(C(=O)CCn4ccnn4)C3)ccc2o1` [Example I-213], with more than 100 µM.
The value for `CN(C)C(=O)c1cc2cc(C3=CCCN(C(=O)[C@H]4Cc5ccc(O)cc5CN4)C3)ccc2o1` [Example I-239] was more than 100 µM.
As to `CN(C)C(=O)c1cc2ccc(C3=CCCN(C(=O)c4cn(C5CC5)nn4)C3)cc2[nH]1` [Example I-45], the IC50 is 10 to 100 µM.
With `COC(=O)[C@H]1CC[C@@H](c2ccc3oc(C(=O)N(C)C)cc3c2)CN1C(=O)CCn1ccnn1` (single isomer, unassigned) [Example I-151], the IC50 was more than 100 µM.
Then `CN(C)C(=O)c1cc2cc(C3=CCCN(C(=O)CCn4ccnn4)C3)ccc2s1` [Example I-243], with more than 100 µM.
The value for `CN(C)C(=O)c1cc2cc(C3=CCCN(C(=O)CCc4ccc5c(c4)OCCO5)C3)ccc2o1` [Example I-280] was more than 100 µM.
As for `CN(C)C(=O)c1cc2cc(C3=CCCN(C(=O)CCn4ccnn4)C3)cc(CN3CC(N)C3)c2o1` [Example I-166], the IC50 was more than 100 µM.
Consider `CN(C)C(=O)c1cc2cc(C3=CCCN(C(=O)Cc4cccnc4)C3)ccc2o1` [Example I-275], for which the IC50 was more than 100 µM.
The value for `COC(=O)C1CCC(c2ccc3oc(C(=O)N(C)C)cc3c2)CN1C(=O)CCn1ccnn1` (stereo not shown) [Example I-150] was more than 100 µM; that for `Cc1nc(CC(=O)N2CCC=C(c3ccc4cc(C(=O)N(C)C)[nH]c4c3)C2)no1` [Example I-41] was 10 to 100 µM; that for `CN(C)C(=O)c1nc2cc(C3=CCCN(C(=O)CCn4ccnn4)C3)ccc2[nH]1` [Example I-234] was more than 100 µM.
The value for `CN(C)C(=O)c1cc2cc(C3=CCCN(C(=O)C4Cc5c(cccc5-n5cccn5)CN4C=O)C3)ccc2o1` (stereo not shown) [Example I-172] was more than 100 µM; that for `Cc1nocc1C(=O)N1CCC=C(c2ccc3cc(C(=O)N(C)C)[nH]c3c2)C1` [Example I-35] was 10 to 100 µM; that for `CC(=O)N1CCc2ccccc2[C@@H]1C(=O)N1CCC=C(c2ccc3oc(C(=O)N(C)C)cc3c2)C1` (single isomer, unassigned) [Example I-177] was more than 100 µM.
Take `CN(C)C(=O)c1cc2cc(C3=CCCN(C(=O)Cc4coc5ccccc45)C3)ccc2o1` [Example I-271]: the IC50 is more than 100 µM.
Then `CNCc1cc(C2=CCCN(C(=O)CCn3ccnn3)C2)cc2cc(C(=O)N(C)C)oc12` [Example I-203], with 10 to 100 µM; and `CN(C)C(=O)c1cc2ccc(C3=CCCN(C(=O)CCCn4ncc5nc(Cl)ccc54)C3)cc2[nH]1` [Example I-90], with 10 to 100 µM; and `CN(C)C(=O)c1cc2cc(C3=CCCN(C(=O)C4Cc5c(cccc5-c5ccc(O)cc5)CN4C=O)C3)ccc2o1` (stereo not shown) [Example I-187], with more than 100 µM.
With `CN(C)C(=O)c1cc2cc(C3=CCCN(C(=O)CCn4ccnn4)C3)cc(C3CCNCC3)c2o1` [Example I-215], the IC50 was in the range of 10 to 100 µM.
`CN(C)C(=O)c1cc2cc(C3=CCCN(C(=O)[C@H](N)Cn4ccnn4)C3)ccc2o1` (single isomer, unassigned) [Example I-174]: the IC50 is more than 100 µM.
The value for `C[C@@H](Cn1ccnn1)C(=O)N1CCC=C(c2ccc3oc(C(=O)N(C)C)cc3c2)C1` (single isomer, unassigned) [Example I-229] was more than 100 µM; that for `CN(C)C(=O)c1cc2ccc(C3=CCCN(C(=O)C45CC(C(F)(F)F)(C4)C5)C3)cc2[nH]1` [Example I-55] was 10 to 100 µM.

Values taken from US20250214977A1, “STAT6 INHIBITORS AND USES THEREOF” (Kymera Therapeutics, Inc., priority 2024, published 2025).
